These results are taken from patent US20130012432A1, “Peptides for Treatment of Obesity” (Novo Nordisk A/S, priority 2010, published 2013).

A short description of one data set: physchem. How it is done: From a stock solution in vehicle, either H2O or 10 mM phosphate, containing 1 mg (as weighed) compound per ml, 8-11 aliquots are withdrawn and pH-adjusted individually with HCl/NaOH, to cover the whole pH range.
For another data set, the target named is MC1 receptor (Homo sapiens, UniProt Q01726). Put plainly: biochemical. In outline:
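Compounds competed against 125I-NDP-α-MSH (22 pM final) for binding to stably MC1-expressing BHK cell membranes, 30 °C for 90 min in HEPES pH 7.4 buffer with 0.1% HSA or ovalbumin. Bound ligand collected by filtration and counted; binding curves analysed by non-linear regression.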

Values after ≈ are worked out from the molar mass of the structure shown. Positions of bridges follow the written chain, without caps; N, C: chain ends. Non-standard residues stand in square brackets, D forms with d. Residues, ends and D or L forms follow the SMILES beside them. Groups on a side chain read outwards from the residue. ξ: configuration not given here. *: point of attachment. Palmitoyl(16-(5-tetrazolyl)) = O=C(CCCCCCCCCCCCCCCc1nnn[nH]1)*; Lys(CH2CO2H)2 = N[C@@H](CCCCN(CC(=O)O)CC(=O)O)C(=O)O; C17 diacid = O=C(O)CCCCCCCCCCCCCCCC(=O)*; Hyp = O=C(O)[C@@H]1C[C@@H](O)CN1; ξH = NC(Cc1c[nH]cn1)C(=O)O; Orn = NCCC[C@H](N)C(=O)O; Dap = NC[C@H](N)C(=O)O; AEEA = NCCOCCOCC(=O)O; ξK = NCCCCC(N)C(=O)O

MC1 receptor, sequence (Q01726 whole entry): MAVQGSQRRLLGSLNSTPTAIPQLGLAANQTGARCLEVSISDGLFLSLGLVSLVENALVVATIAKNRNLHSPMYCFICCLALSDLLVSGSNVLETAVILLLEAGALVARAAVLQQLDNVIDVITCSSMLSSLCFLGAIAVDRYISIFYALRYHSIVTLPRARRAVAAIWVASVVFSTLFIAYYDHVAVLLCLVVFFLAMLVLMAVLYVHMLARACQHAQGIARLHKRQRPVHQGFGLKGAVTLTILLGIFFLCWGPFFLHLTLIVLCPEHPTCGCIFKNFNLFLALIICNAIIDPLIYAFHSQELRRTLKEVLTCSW

What is called solubility is the concentration that dissolves in the medium under given conditions. Low values mean a poorly soluble substance, high ones a readily soluble substance. Broadly, the Ki is the equilibrium dissociation constant of an inhibitor or competing ligand from its target. With `CC(=O)N[C@H]1CCCNC(=O)C[C@@H](C(=O)N2CCC[C@H]2C(=O)N[C@@H](CO)C(=O)NC(CCCCN)C(=O)N[C@@H](CCC(=O)O)C(=O)N[C@@H](CCC(=O)O)C(=O)N[C@@H](CO)C(=O)N[C@@H](CO)C(=O)N[C@@H](CCCCNC(=O)COCCOCCNC(=O)CCCCCCCCCCCCCCCC(=O)O)C(N)=O)NC(=O)CNC(=O)[C@H](Cc2c[nH]c3ccccc23)NC(=O)[C@H](CCCNC(=N)N)NC(=O)[C@@H](Cc2ccccc2)NC(=O)C(Cc2c[nH]cn2)NC(=O)[C@H](CCC(=O)O)NC1=O` (some centres unmarked) [Example 40] (Ac-[Orn]E[ξH][dF]RWGDPS[ξK]EESSK([AEEA-C17 diacid])-NH2; lactam 1-8), the solubility is 266 µM (≈ 634 µg/mL) in “physchem” (pH 5.9, Solubility Conc.); 501 µM (≈ 1190 µg/mL) in “physchem” (pH 6.3, Solubility Conc.); 512 µM (≈ 1220 µg/mL) in the data set “physchem” (pH 6.5, Solubility Conc.); 493 µM (≈ 1180 µg/mL) in “physchem” (pH 6.7, Solubility Conc.); 505 µM (≈ 1200 µg/mL) in the data set “physchem” (pH 7, Solubility Conc.); 499 µM (≈ 1190 µg/mL) in the data set “physchem” (pH 7.4, Solubility Conc.). The solubility came out at 489 µM (≈ 1170 µg/mL) in “physchem” (pH 7.6, Solubility Conc.); 488 µM (≈ 1160 µg/mL) in the data set “physchem” (pH 8, Solubility Conc.); 503 µM (≈ 1200 µg/mL) in “physchem” (pH 8.2, Solubility Conc.). Further, on MC1 receptor, the Ki is over 10 µM.

On to `CC(=O)N[C@H]1CC(=O)NC[C@@H](C(=O)N2CCC[C@H]2C(=O)N2CCC[C@H]2C(=O)N[C@@H](CCCNC(=N)N)C(=O)N[C@@H](CC(=O)O)C(=O)N[C@@H](CCCCN(CC(=O)O)CC(=O)O)C(=O)N[C@@H](CCCCNC(=O)COCCOCCNC(=O)CCCCCCCCCCCCCCCc2nnn[nH]2)C(N)=O)NC(=O)[C@H](Cc2c[nH]c3ccccc23)NC(=O)[C@H](CCCNC(=N)N)NC(=O)[C@@H](Cc2ccccc2)NC(=O)[C@H](Cc2c[nH]cn2)NC1=O` [Example 41, Ac-c[Asp-His-D-Phe-Arg-Trp-Dap]-Pro-Pro-Arg-Asp-Lys(biscarboxymethyl)-Lys[(2-{2-[16-(tetrazol-5-yl)hexadecanoylamino]ethoxy}ethoxy)acetyl]-NH2] (Ac-DH[dF]RW[Dap]PPRD[Lys(CH2CO2H)2]K([AEEA-Palmitoyl(16-(5-tetrazolyl))])-NH2; lactam 1-6), for which the solubility was 39 µM (≈ 84.2 µg/mL) in the data set “physchem” (pH 7, Solubility Conc.); 87 µM (≈ 188 µg/mL) in the data set “physchem” (pH 7.3, Solubility Conc.); 160 µM (≈ 345 µg/mL) in the data set “physchem” (pH 7.4, Solubility Conc.); 387 µM (≈ 835 µg/mL) in “physchem” (pH 7.5, Solubility Conc.); 497 µM (≈ 1070 µg/mL) in “physchem” (pH 7.6, Solubility Conc.); 478 µM (≈ 1030 µg/mL) in the data set “physchem” (pH 7.7, Solubility Conc.). In addition, the solubility amounted to 451 µM (≈ 973 µg/mL) in “physchem” (pH 7.8, Solubility Conc.) and 493 µM (≈ 1060 µg/mL) in “physchem” (pH 8, Solubility Conc.). At MC1 receptor, this compound had an inhibition constant Ki of over 10 µM.

As for `CC(=O)N[C@H]1CCCCNC(=O)C[C@@H](C(=O)N2CCC[C@H]2C(=O)N2CCC[C@H]2C(=O)N[C@@H](Cc2c[nH]cn2)C(=O)N[C@@H](CO)C(=O)N[C@@H](CCCCN(CC(=O)O)CC(=O)O)C(=O)N[C@@H](CO)C(=O)N[C@@H](CO)C(=O)N[C@@H](CCC(=O)O)C(=O)N[C@@H](CCCCNC(=O)COCCOCCNC(=O)CCCCCCCCCCCCCCCC(=O)O)C(N)=O)NC(=O)[C@H](Cc2c[nH]c3ccccc23)NC(=O)[C@H](CCCNC(=N)N)NC(=O)[C@@H](Cc2ccccc2)NC(=O)[C@H](Cc2c[nH]cn2)NC1=O` [Example 45, Ac-c[Lys-His-D-Phe-Arg-Trp-Asp]-Pro-Pro-His-Ser-Lys(biscarboxymethyl)-Ser-Ser-Glu-Lys({2-[2-(16-carboxyhexadecanoylamino)ethoxy]ethoxy}acetyl)-NH2] (Ac-KH[dF]RWDPPHS[Lys(CH2CO2H)2]SSEK([AEEA-C17 diacid])-NH2; lactam 1-6), the solubility in “physchem” (pH 6.4, Solubility Conc.) is 199 µM (≈ 484 µg/mL); in the data set “physchem” (pH 6.7, Solubility Conc.), 334 µM (≈ 813 µg/mL); in “physchem” (pH 6.8, Solubility Conc.) it was 350 µM (≈ 851 µg/mL); in the data set “physchem” (pH 7, Solubility Conc.) it was 370 µM (≈ 900 µg/mL); in the data set “physchem” (pH 7.3, Solubility Conc.), 391 µM (≈ 951 µg/mL); in “physchem” (pH 7.5, Solubility Conc.) it was 380 µM (≈ 924 µg/mL). For the same compound, the solubility in the data set “physchem” (pH 7.7, Solubility Conc.) was 379 µM (≈ 922 µg/mL); in the data set “physchem” (pH 7.9, Solubility Conc.), 391 µM (≈ 951 µg/mL); in the data set “physchem” (pH 8.1, Solubility Conc.) it was 400 µM (≈ 973 µg/mL). In addition, the Ki on MC1 receptor is over 10 µM.

For the compound `CC(=O)N[C@H]1CCC(=O)NCCCC[C@@H](C(=O)N2C[C@H](O)C[C@H]2C(=O)N2C[C@H](O)C[C@H]2C(=O)N[C@@H](CCCNC(=N)N)C(=O)N[C@@H](CC(=O)O)C(=O)N[C@@H](CCCCN(CC(=O)O)CC(=O)O)C(=O)N[C@@H](CCCCNC(=O)COCCOCCNC(=O)CCCCCCCCCCCCCCCc2nnn[nH]2)C(N)=O)NC(=O)[C@H](Cc2c[nH]c3ccccc23)NC(=O)[C@H](CCCNC(=N)N)NC(=O)[C@@H](Cc2ccccc2)NC(=O)[C@H](Cc2c[nH]cn2)NC1=O` [Example 48, Ac-c[Glu-His-D-Phe-Arg-Trp-Lys]-Hyp-Hyp-Arg-Asp-Lys(biscarboxymethyl)-Lys[(2-{2-[16-(tetrazol-5-yl)hexadecanoylamino]ethoxy}ethoxy)acetyl]-NH2] (Ac-EH[dF]RWK[Hyp][Hyp]RD[Lys(CH2CO2H)2]K([AEEA-Palmitoyl(16-(5-tetrazolyl))])-NH2; lactam 1-6), the solubility was found to be 54 µM (≈ 121 µg/mL) in the data set “physchem” (pH 6.7, Solubility Conc.); 107 µM (≈ 240 µg/mL) in the data set “physchem” (pH 7, Solubility Conc.); 218 µM (≈ 490 µg/mL) in the data set “physchem” (pH 7.3, Solubility Conc.); 309 µM (≈ 694 µg/mL) in “physchem” (pH 7.4, Solubility Conc.); 368 µM (≈ 827 µg/mL) in “physchem” (pH 7.5, Solubility Conc.); 416 µM (≈ 935 µg/mL) in the data set “physchem” (pH 7.6, Solubility Conc.). Also, the solubility in the data set “physchem” (pH 7.8, Solubility Conc.) worked out at 430 µM (≈ 966 µg/mL); in the data set “physchem” (pH 8, Solubility Conc.) it was 420 µM (≈ 944 µg/mL); in “physchem” (pH 8.1, Solubility Conc.), 418 µM (≈ 939 µg/mL); in the data set “physchem” (pH 8.3, Solubility Conc.) it was 412 µM (≈ 926 µg/mL). In addition, the Ki at MC1 receptor is over 10 µM.

As for `CC(=O)N[C@H]1CCCCNC(=O)C[C@@H](C(=O)N2CCC[C@H]2C(=O)N2CCC[C@H]2C(=O)N[C@@H](Cc2c[nH]cn2)C(=O)N[C@@H](CCC(=O)O)C(=O)N[C@@H](CCC(=O)O)C(=O)N[C@@H](CO)C(=O)N[C@@H](CO)C(=O)N[C@@H](CCC(=O)O)C(=O)N[C@@H](CCCCNC(=O)COCCOCCNC(=O)CCCCCCCCCCCCCCCC(=O)O)C(N)=O)NC(=O)[C@H](Cc2c[nH]c3ccccc23)NC(=O)[C@H](CCCNC(=N)N)NC(=O)[C@@H](Cc2ccccc2)NC(=O)[C@H](Cc2c[nH]cn2)NC1=O` [Example 52] (Ac-KH[dF]RWDPPHEESSEK([AEEA-C17 diacid])-NH2; lactam 1-6), the solubility in the data set “physchem” (pH 6.1, Solubility Conc.) was 169 µM (≈ 399 µg/mL); in the data set “physchem” (pH 6.3, Solubility Conc.), 339 µM (≈ 800 µg/mL); in the data set “physchem” (pH 6.7, Solubility Conc.), 376 µM (≈ 887 µg/mL); in the data set “physchem” (pH 7, Solubility Conc.) it was 372 µM (≈ 878 µg/mL); in the data set “physchem” (pH 7.3, Solubility Conc.), 378 µM (≈ 892 µg/mL); in “physchem” (pH 7.5, Solubility Conc.), 382 µM (≈ 901 µg/mL). Moreover, the solubility in “physchem” (pH 7.6, Solubility Conc.) was determined as 381 µM (≈ 899 µg/mL); in “physchem” (pH 8, Solubility Conc.), 391 µM (≈ 923 µg/mL); in “physchem” (pH 8.3, Solubility Conc.) it was 390 µM (≈ 920 µg/mL). The Ki on MC1 receptor was over 10 µM.
